Here are results for 58 compounds from patent US20250090540A1, “PI3K-ALPHA INHIBITORS AND METHODS OF USE THEREOF” (Relay Therapeutics, Inc., priority 2021, published 2025).

As a reminder, the pIC50 is the negative decadic logarithm of the IC50, by convention in mol/L.

This test addresses H1047R PIK3CA enzyme (Homo sapiens, UniProt P42336, H1047R). Nature of the test: ADP-Glo Biochemical PIK3CA Kinase Assay.
Where [1] appears, read: ADP-Glo biochemical PIK3CA kinase assay.

pIC50: −log10 of the molar value. Where two headings read alike, the source gives them in different places.

Chain of H1047R PIK3CA enzyme (P42336 whole entry H1047R): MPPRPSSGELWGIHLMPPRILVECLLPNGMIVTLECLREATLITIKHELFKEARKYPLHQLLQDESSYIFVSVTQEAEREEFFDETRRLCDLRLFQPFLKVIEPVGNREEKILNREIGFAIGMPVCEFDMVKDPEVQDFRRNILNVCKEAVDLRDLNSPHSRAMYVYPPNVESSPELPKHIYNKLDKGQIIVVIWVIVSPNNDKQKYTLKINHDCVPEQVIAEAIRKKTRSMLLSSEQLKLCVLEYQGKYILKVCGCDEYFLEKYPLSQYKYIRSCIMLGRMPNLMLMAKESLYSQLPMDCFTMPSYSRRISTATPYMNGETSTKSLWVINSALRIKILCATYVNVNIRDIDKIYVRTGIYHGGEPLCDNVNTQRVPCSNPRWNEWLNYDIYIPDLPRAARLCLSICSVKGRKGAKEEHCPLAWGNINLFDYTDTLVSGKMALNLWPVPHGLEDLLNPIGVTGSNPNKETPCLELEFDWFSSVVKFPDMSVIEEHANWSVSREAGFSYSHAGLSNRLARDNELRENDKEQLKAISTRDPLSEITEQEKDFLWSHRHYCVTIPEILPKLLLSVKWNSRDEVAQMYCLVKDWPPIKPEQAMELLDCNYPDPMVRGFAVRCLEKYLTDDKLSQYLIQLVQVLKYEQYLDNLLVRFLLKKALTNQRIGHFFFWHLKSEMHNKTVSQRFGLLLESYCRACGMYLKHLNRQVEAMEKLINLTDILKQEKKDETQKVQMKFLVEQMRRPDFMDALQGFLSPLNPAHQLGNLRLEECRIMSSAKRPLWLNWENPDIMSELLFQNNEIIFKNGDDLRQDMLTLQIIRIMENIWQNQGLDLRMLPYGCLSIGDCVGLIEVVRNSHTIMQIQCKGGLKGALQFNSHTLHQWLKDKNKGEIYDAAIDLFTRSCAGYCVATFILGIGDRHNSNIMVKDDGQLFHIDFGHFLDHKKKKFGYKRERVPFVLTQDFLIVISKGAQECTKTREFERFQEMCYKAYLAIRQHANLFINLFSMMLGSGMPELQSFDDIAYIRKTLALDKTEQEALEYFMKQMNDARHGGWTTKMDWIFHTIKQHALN
Chain of H1047R PIK3CA enzyme (P27986 whole entry partner): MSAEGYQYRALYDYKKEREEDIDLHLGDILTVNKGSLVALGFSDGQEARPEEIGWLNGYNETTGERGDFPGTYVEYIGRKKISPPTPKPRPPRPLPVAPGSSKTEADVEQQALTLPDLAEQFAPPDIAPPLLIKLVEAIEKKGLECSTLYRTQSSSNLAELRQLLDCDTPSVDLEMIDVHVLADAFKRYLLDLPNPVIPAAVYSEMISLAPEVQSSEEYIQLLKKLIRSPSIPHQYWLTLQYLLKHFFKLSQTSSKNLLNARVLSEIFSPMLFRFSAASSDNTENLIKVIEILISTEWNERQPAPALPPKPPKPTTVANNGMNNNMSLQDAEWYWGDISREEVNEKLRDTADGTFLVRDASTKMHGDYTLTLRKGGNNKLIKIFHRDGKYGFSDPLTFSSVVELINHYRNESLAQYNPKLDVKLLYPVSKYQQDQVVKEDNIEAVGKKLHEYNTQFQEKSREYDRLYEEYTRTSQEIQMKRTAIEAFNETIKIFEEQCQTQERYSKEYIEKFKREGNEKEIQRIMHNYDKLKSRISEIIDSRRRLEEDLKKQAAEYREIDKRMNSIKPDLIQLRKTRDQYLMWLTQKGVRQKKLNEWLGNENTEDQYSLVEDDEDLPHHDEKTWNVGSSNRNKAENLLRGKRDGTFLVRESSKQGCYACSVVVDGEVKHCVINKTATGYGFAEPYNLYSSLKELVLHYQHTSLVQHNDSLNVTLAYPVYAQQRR

`CNC(=O)c1cnc(Nc2ccccc2C)c(NC(=O)c2cnn(C)c2C(F)(F)F)c1` [I-385]: the pIC50 is 4.00 to 5.00.
`CNC(=O)c1cnc(Nc2ccccc2C)c(NC(=O)C2CCNc3ccccc32)c1` (stereo not shown) [I-386] showed a pIC50 of 4.00 to 5.00.
Consider `CNC(=O)c1cnc(Nc2ccccc2C)c(NC(=O)CC2OCCc3ccccc32)c1` (stereo not shown) [I-387], for which the pIC50 was 4.00 to 5.00.
On to `CNC(=O)c1cnc(Nc2ccccc2C)c(NC(=O)c2cncc(C(F)(F)F)c2)c1` [I-388], for which the negative logarithm of the IC50 (pIC50) was 4.00 to 5.00.
`CNC(=O)c1cnc(Nc2ccccc2C)c(NC(=O)c2cc(F)cc(S(N)(=O)=O)c2)c1` [I-389] gave a pIC50 of 4.00 to 5.00.
`CNC(=O)c1cnc(Nc2ccccc2C)c(NC(=O)c2ccc(OC(F)(F)F)c(F)c2)c1` [I-391] showed a negative logarithm of the IC50 (pIC50) of 4.00 to 5.00.
Turning to `CNC(=O)c1cnc(Nc2ccccc2C)c(NC(=O)c2cc(F)cc3[nH]ccc23)c1` [I-392], the pIC50 is 4.00 to 5.00.
The compound `CNC(=O)c1cnc(Nc2ccccc2C)c(NC(=O)c2cc(F)c3[nH]ncc3c2)c1` [I-393] had a pIC50 of 4.00 to 5.00.
Regarding `CNC(=O)c1cnc(Nc2ccccc2C)c(NC(=O)c2cc(F)c3cc[nH]c3c2)c1` [I-394], the negative-log IC50 (pIC50) was 4.00 to 5.00.
Turning to `CNC(=O)c1cnc(Nc2cccnc2OC)c(NC(=O)c2csc3ccccc23)c1` [I-400], the negative-log IC50 (pIC50) under setting [1] was 4.00 to 5.00.
For the compound `CNC(=O)c1cnc(Nc2cccc(OC)c2)c(NC(=O)c2csc3ccccc23)c1` [I-401], under setting [1], the pIC50 was 5.00 to 6.00.
In the case of `CNC(=O)c1cnc(Nc2ccccc2C)c(NC(=O)c2csc3c2CCC(C)(C)C3)c1` [I-403], the pIC50 under setting [1] was 4.00 to 5.00.
Still for that read-out and setting: under `CNC(=O)c1cnc(Nc2ccccc2C)c(NC(=O)c2csc3cc(F)cc(F)c23)c1` [I-404] stands 4.00 to 5.00.
Compound `CNC(=O)c1cnc(Nc2ccccc2C)c(NC(=O)Cc2csc3ccccc23)c1` [I-410] had a pIC50 under setting [1] of 4.00 to 5.00.
The same measure, in the same setting: the same measure for `CNC(=O)c1cnc(Nc2ccccc2C)c(NC(=O)c2cnc3c(Cl)cccn23)c1` [I-414]: 4.00 to 5.00; for `CNC(=O)c1cnc(Nc2ccccc2C)c(NC(=O)c2nc3ccccn3c2F)c1` [I-415]: 4.00 to 5.00; for `CNC(=O)c1cnc(Nc2ccccc2C)c(NC(=O)c2cnc(O)cc2C(F)(F)F)c1` [I-416]: 4.00 to 5.00.
The same measure, in the same setting: under `CNC(=O)c1cnc(Nc2ccccc2C)c(NC(=O)c2cn(C)nc2C(F)F)c1` [I-417] stands 4.00 to 5.00; under `CNC(=O)c1cnc(Nc2ccccc2C)c(NC(=O)c2cc(C)c3ccccc3n2)c1` [I-418], 4.00 to 5.00; under `CNC(=O)c1cnc(Nc2ccccc2C)c(NC(=O)c2cc(C)cc3cccnc23)c1` [I-419], 5.00 to 6.00.
The compound `CNC(=O)c1cnc(Nc2ccccc2C)c(NC(=O)c2cnn3cc(F)ccc23)c1` [I-420] had a pIC50 under setting [1] of 4.00 to 5.00.
In turn, `CNC(=O)c1cnc(Nc2ccccc2C)c(NC(=O)c2cccc3cc(C)[nH]c23)c1` [I-421] had a pIC50 under setting [1] of 5.00 to 6.00.
`CNC(=O)c1cnc(Nc2ccccc2C)c(NC(=O)c2cn3c(F)cccc3n2)c1` [I-422] gave a pIC50 under setting [1] of 4.00 to 5.00.
The same measure, in the same setting: under `CNC(=O)c1cnc(Nc2ccccc2C)c(NC(=O)c2cc(C)cc3cc[nH]c23)c1` [I-423] stands 5.00 to 6.00; under `CNC(=O)c1cnc(Nc2ccccc2C)c(NC(=O)c2cc3cc(F)ccc3[nH]2)c1` [I-425], 4.00 to 5.00.
As for `CNC(=O)c1cnc(Nc2ccccc2C)c(NC(=O)c2n[nH]c3cccc(F)c23)c1` [I-426], the pIC50 under setting [1] is 5.00 to 6.00.
Regarding `CNC(=O)c1cnc(Nc2ccccc2C)c(NC(=O)c2nc3ccccn3c2C)c1` [I-427], under setting [1], the pIC50 is 4.00 to 5.00.
With `CNC(=O)c1cnc(Nc2ccccc2C)c(NC(=O)C(C)n2ccccc2=O)c1` (stereo not shown) [I-428], the negative logarithm of the IC50 (pIC50) under setting [1] was 4.00 to 5.00.
For `CNC(=O)c1cnc(Nc2ccccc2C)c(NC(=O)c2cc3cc[nH]c3cc2F)c1` [I-429], under setting [1], the pIC50 is 4.00 to 5.00.
`CNC(=O)c1cnc(Nc2ccccc2C)c(NC(=O)c2cnn3cccc(OC)c23)c1` [I-430] gave a pIC50 under setting [1] of 4.00 to 5.00.
On to `CNC(=O)c1cnc(Nc2ccccc2C)c(NC(=O)c2ccc3c(cnn3C)c2)c1` [I-431], for which, under setting [1], the pIC50 is 4.00 to 5.00.
Under setting [1], `CNC(=O)c1cnc(Nc2ccccc2C)c(NC(=O)c2cc(C(F)(F)F)ccn2)c1` [I-432] showed a pIC50 of 4.00 to 5.00.
For the compound `Cc1ccccc1CNc1cccc(=O)n1Cc1ccccc1C` [I-433], under setting [1], the pIC50 is 4.00 to 5.00.
`CNC(=O)c1cnc(Nc2ccccc2C)c(NC(=O)CCc2ccccc2F)c1` [I-437] gave a pIC50 under setting [1] of 4.00 to 5.00.
Take `CNC(=O)c1cnc(Nc2ccccc2C)c(NC(=O)c2ccnc3c(F)cccc23)c1` [I-438]: the pIC50 under setting [1] is 4.00 to 5.00.
For the compound `CNC(=O)c1cnc(Nc2ccccc2C)c(NC(=O)c2nn(C)c(C3CC3)c2F)c1` [I-439], the pIC50 under setting [1] is 4.00 to 5.00.
Consider `CNC(=O)c1cnc(Nc2ccccc2C)c(NC(=O)c2cc3c(C)cccc3[nH]2)c1` [I-440], for which, under setting [1], the pIC50 is 4.00 to 5.00.
Same read-out and setting: the same measure for `CNC(=O)c1cnc(Nc2ccccc2C)c(NC(=O)C2CCCCC2(F)F)c1` (stereo not shown) [I-441]: 4.00 to 5.00.
The same measure, in the same setting: the same measure for `CNC(=O)c1cnc(Nc2ccccc2C)c(NC(=O)c2cc3cccc(F)c3s2)c1` [I-442]: 4.00 to 5.00.
Turning to `CNC(=O)c1cnc(Nc2ccccc2C)c(NC(=O)c2cccnc2CS(C)(=O)=O)c1` [I-443], the pIC50 under setting [1] is 4.00 to 5.00.
Consider `CNC(=O)c1cnc(Nc2ccccc2C)c(NC(=O)c2ccnc3ccc(Br)cc23)c1` [I-444], for which the negative logarithm of the IC50 (pIC50) under setting [1] is 4.00 to 5.00.
The compound `CNC(=O)c1cnc(Nc2ccccc2C)c(NC(=O)c2cccc(Cl)c2C)c1` [I-445] gave a pIC50 under setting [1] of 4.00 to 5.00.
The compound `CC#CCC(C(=O)Nc1cc(C(=O)NC)cnc1Nc1ccccc1C)c1ccccc1` (stereo not shown) [I-446] gave a pIC50 under setting [1] of 4.00 to 5.00.
`CNC(=O)c1cnc(Nc2ccccc2C)c(NC(=O)c2ccc3c(c2)COC3)c1` [I-447] gave a negative logarithm of the IC50 (pIC50) under setting [1] of 4.00 to 5.00.
As for `CNC(=O)c1cnc(Nc2ccccc2C)c(NC(=O)c2cc(=O)[nH]c3ccccc23)c1` [I-448], the pIC50 under setting [1] was 4.00 to 5.00.
Under setting [1], `CNC(=O)c1cnc(Nc2ccccc2C)c(NC(=O)c2cc(Cl)n3ccccc23)c1` [I-449] had a pIC50 of 6.30 to 7.00.
Under setting [1], `CNC(=O)c1cnc(Nc2ccccc2C)c(NC(=O)c2cc(C)nn2C(F)F)c1` [I-450] gave a negative-log IC50 (pIC50) of 4.00 to 5.00.
`CNC(=O)c1cnc(Nc2ccccc2C)c(NC(=O)c2cnc3cc(F)ccn23)c1` [I-451] showed a pIC50 under setting [1] of 4.00 to 5.00.
Same read-out and setting: the same measure for `CNC(=O)c1cnc(Nc2ccccc2C)c(NC(=O)c2cc3c(Cl)cncc3s2)c1` [I-452]: 4.00 to 5.00; for `CNC(=O)c1cnc(Nc2ccccc2C)c(NC(=O)c2ccc3ccccc3c2Br)c1` [I-453]: 4.00 to 5.00.
Under setting [1], `CNC(=O)c1cnc(Nc2ccccc2C)c(NC(=O)c2cccc(OC)c2F)c1` [I-454] had a pIC50 of 4.00 to 5.00.
For the compound `CNC(=O)c1cnc(Nc2ccccc2C)c(NC(=O)c2n[nH]c3ccc(C#N)cc23)c1` [I-455], the pIC50 under setting [1] is 4.00 to 5.00.
The same measure, in the same setting: under `CNC(=O)c1cnc(Nc2ccccc2C)c(NC(=O)c2cc3cccc(Cl)c3s2)c1` [I-456] stands 5.00 to 6.00.
Under setting [1], `CNC(=O)c1cnc(Nc2ccccc2C)c(NC(=O)c2nn(C(C)C)c3ccccc23)c1` [I-457] showed a pIC50 of 4.00 to 5.00.
Under setting [1], `CNC(=O)c1cnc(Nc2ccccc2C)c(NC(=O)CCc2c[nH]c3ccc(F)cc23)c1` [I-459] gave a pIC50 of 4.00 to 5.00.
Turning to `CNC(=O)c1cnc(Nc2ccccc2C)c(NC(=O)c2cc(Br)cc3ccccc23)c1` [I-461], the pIC50 under setting [1] is 4.00 to 5.00.
As for `CNC(=O)c1cnc(Nc2ccccc2C)c(NC(=O)c2cc3c(Cl)cccn3c2)c1` [I-462], the pIC50 under setting [1] is 4.00 to 5.00.
Same read-out and setting: the same measure for `CNC(=O)c1cnc(Nc2ccccc2C)c(NC(=O)c2onc3c2CCCC3)c1` [I-463]: 4.00 to 5.00.
